Results: ChEMBL document CHEMBL4229359, “Simple 2(5H)-furanone derivatives with selective cytotoxicity towards non-small cell lung cancer cell line A549 - Synthesis, structure-activity relationship and biological evaluation” (Eur J Med Chem, 2018)
Active and inactive are the calls of the source. The calls are words filed in the database; no cut-off is given here.

Tests used:
[1] = system: A549; assay: Effect on Pro-caspase-3 protein expression in human A549 cells at 20 uM after 72 hrs by densitometric analysis; format: functional, cell-based
[2] = system: A549; assay: Induction of apoptosis in human A549 cells assessed as caspase-3 cleavage at 20 uM after 72 hrs by Western blot analysis; format: functional, cell-based
[3] = system: A549; assay: Cytotoxicity against human A549 cells assessed as reduction in cell viability after 72 hrs by MTT assay; format: functional, cell-based; settings: A549, 72 h
[4] = system: A549; assay: Effect on cleaved caspase-3 protein expression in human A549 cells at 20 uM after 72 hrs by densitometric analysis; format: functional, cell-based
[5] = system: BEAS-2B; assay: Cytotoxicity against human BEAS2B cells assessed as reduction in cell viability after 72 hrs by MTT assay; format: cell-based
[6] = system: A549; assay: Cell cycle arrest in human A549 cells assessed as accumulation at G1-phase at 10 uM after 24 hrs by propidium iodide staining based flow cytometry (reference value: 59.4%); format: functional
[7] = system: Hep 3B2; assay: Cytotoxicity against human Hep3B cells assessed as reduction in cell viability after 72 hrs by MTT assay; format: functional, cell-based
[8] = system: A549; assay: Cell cycle arrest in human A549 cells assessed as accumulation at G1-phase at 20 uM after 72 hrs by propidium iodide staining based flow cytometry (reference value: 61.5%); format: functional
[9] = system: SJSA-1; assay: Cytotoxicity against human SJSA1 cells assessed as reduction in cell viability after 72 hrs by MTT assay; format: functional, cell-based; settings: SJSA-1, 72 h
[10] = system: A549; assay: Cell cycle arrest in human A549 cells assessed as accumulation at G2/M-phase at 10 uM after 24 hrs by propidium iodide staining based flow cytometry (reference value: 6.5%); format: functional
[11] = system: HepG2; assay: Cytotoxicity against human HepG2 cells assessed as reduction in cell viability after 72 hrs by MTT assay; format: functional, cell-based; settings: HepG2, 72 h
[12] = Selectivity index, ratio of IC50 for human BEAS2B cells to IC50 for human A549 cells; format: toxicity
[13] = system: A549; assay: Cell cycle arrest in human A549 cells assessed as accumulation at S-phase at 20 uM after 72 hrs by propidium iodide staining based flow cytometry (reference value: 31.9%); format: functional
[14] = system: MCF7; assay: Cytotoxicity against human MCF7 cells assessed as reduction in cell viability after 72 hrs by MTT assay; format: functional, cell-based; settings: MCF7, 72 h
[15] = system: A549; assay: Cell cycle arrest in human A549 cells assessed as accumulation at G1-phase at 10 uM after 72 hrs by propidium iodide staining based flow cytometry (reference value: 75.2 to 76%); format: functional
[16] = system: A549; assay: Induction of apoptosis in human A549 cells assessed as early apoptotic cells at 20 uM after 72 hrs by Annexin V-FITC/propidium iodide staining based flow cytometry (reference value: 0.4%); format: functional
[17] = system: A549; assay: Effect on Bcl2 protein expression in human A549 cells at 20 uM after 72 hrs by densitometric analysis; format: functional, cell-based
[18] = system: HCT-116; assay: Cytotoxicity against human HCT116 cells assessed as reduction in cell viability after 72 hrs by MTT assay; format: functional, cell-based; settings: HCT-116, 72 h
[19] = system: LoVo; assay: Cytotoxicity against human LoVo cells assessed as reduction in cell viability after 72 hrs by MTT assay; format: functional, cell-based
[20] = system: HCT-116; assay: Cytotoxicity against p53-/- human HCT116 cells assessed as reduction in cell viability after 72 hrs by MTT assay; format: functional, cell-based; settings: HCT-116, 72 h
[21] = system: A549; assay: Cell cycle arrest in human A549 cells assessed as accumulation at S-phase at 10 uM after 24 hrs by propidium iodide staining based flow cytometry (reference value: 34.1%); format: functional
[22] = system: HT-29; assay: Cytotoxicity against human HT-29 cells assessed as reduction in cell viability after 72 hrs by MTT assay; format: functional, cell-based; settings: HT-29, 72 h
[23] = system: A549; assay: Effect on Bad protein expression in human A549 cells at 20 uM after 72 hrs by densitometric analysis; format: functional, cell-based
[24] = system: A549; assay: Effect on Bcl-x protein expression in human A549 cells at 20 uM after 72 hrs by densitometric analysis; format: functional, cell-based
[25] = system: A549; assay: Cell cycle arrest in human A549 cells assessed as accumulation at S-phase at 10 uM after 72 hrs by propidium iodide staining based flow cytometry (reference value: 16.8 to 18.5%); format: functional
[26] = system: A549; assay: Effect on Bax protein expression in human A549 cells at 20 uM after 72 hrs by densitometric analysis; format: functional, cell-based
[27] = system: DU-145; assay: Cytotoxicity against human DU145 cells assessed as reduction in cell viability after 72 hrs by MTT assay; format: functional, cell-based; settings: DU-145, 72 h
[28] = system: A549; assay: Induction of apoptosis in human A549 cells assessed as live cells at 20 uM after 72 hrs by Annexin V-FITC/propidium iodide staining based flow cytometry (reference value: 98.5%); format: functional
[29] = system: A549; assay: Anticlonogenic activity against human A549 cells at 10 uM after 24 to 72 hrs by crystal violet staining based microscopic method; format: functional, cell-based
[30] = system: A549; assay: Cell cycle arrest in human A549 cells assessed as accumulation at G2/M-phase at 20 uM after 72 hrs by propidium iodide staining based flow cytometry (reference value: 6.7%); format: functional
[31] = system: PC-3; assay: Cytotoxicity against human PC3 cells assessed as reduction in cell viability after 72 hrs by MTT assay; format: functional, cell-based; settings: PC-3, 72 h
[32] = system: A549; assay: Induction of apoptosis in human A549 cells assessed as late apoptotic cells at 20 uM after 72 hrs by Annexin V-FITC/propidium iodide staining based flow cytometry (reference value: 0.5%); format: functional
[33] = system: U2OS; assay: Cytotoxicity against human U2OS cells assessed as reduction in cell viability after 72 hrs by MTT assay; format: functional, cell-based
[34] = system: A549; assay: Cell cycle arrest in human A549 cells assessed as accumulation at G2/M-phase at 10 uM after 72 hrs by propidium iodide staining based flow cytometry (reference value: 6.3 to 7.2%); format: functional
[35] = system: A549; assay: Upregulation of Cyclin-B1 protein expression in human A549 cells at 10 uM after 72 hrs by Western blot analysis; format: functional, cell-based
[36] = system: A549; assay: Induction of apoptosis in human A549 cells assessed as necrotic cells at 20 uM after 72 hrs by Annexin V-FITC/propidium iodide staining based flow cytometry (reference value: 0.6%); format: functional
[37] = system: A549; assay: Anticlonogenic activity against human A549 cells at 10 uM after 72 hrs by crystal violet staining based microscopic method relative to control; format: functional

Structure (SMILES): CC(C)(C)COC1OC(=O)C(Cl)=C1Cl (configuration not stated)
- Activity [1]: inactive
- Activity [2]: inactive
- IC50 [3]: 7.7 µM
- Activity [4]: inactive
- IC50 [5]: 59 µM
- Activity [6]: 62.1%
- IC50 [7]: 27.8 µM
- Activity [8]: 51.2%
- IC50 [9]: 11.1 µM
- Activity [10]: 5.3%
- IC50 [11]: 17.6 µM
- log(RatioIC50) [12]: 0.88
- Activity [13]: 40.8%
- IC50 [14]: 11.2 µM
- Activity [15]: 74%
- Activity [16]: 4.2%
- Activity [17]: inactive
- IC50 [18]: 7.2 µM
- IC50 [19]: 7.3 µM
- IC50 [20]: 6.2 µM
- Activity [21]: 32.6%
- IC50 [22]: 7.2 µM
- Activity [23]: inactive
- Activity [24]: inactive
- Activity [25]: 17.6%
- Activity [26]: inactive
- IC50 [27]: 26.8 µM
- Activity [28]: 77.7%
- Activity [29]: Active
- Activity [30]: 8%
- IC50 [31]: 6 µM
- Activity [32]: 16.1%
- IC50 [33]: 38.1 µM
- Activity [34]: 8.4%
- Activity [35]: inactive
- Activity [36]: 2.3%

Structure (SMILES): CC(C)OC1OC(=O)C(Cl)=C1Nc1ccc(Cl)cc1 (configuration not stated)
- IC50 [3]: 39.6 µM
- IC50 [5]: 77 µM
- log(RatioIC50) [12]: 0.29

Structure (SMILES): CC(C)OC1OC(=O)C(Cl)=C1Nc1ccccc1 (configuration not stated)
- IC50 [3]: > 400 µM
- IC50 [5]: > 400 µM

Structure (SMILES): C#Cc1cccc(Nc2ncnc3cc(OCCOC)c(OCCOC)cc23)c1 [ERLOTINIB]
- Activity [15]: 74.5%
- Activity [25]: 18.5%
- Activity [37]: 75%
- Activity [34]: 6%

Structure (SMILES): CC(C)OC1OC(=O)C(Cl)=C1N1CCCCC1 (configuration not stated)
- IC50 [3]: > 400 µM
- IC50 [5]: > 400 µM

Structure (SMILES): CC(C)OC1OC(=O)C(Cl)=C1Nc1ccc(F)cc1 (configuration not stated)
- IC50 [3]: 186 µM
- IC50 [5]: > 400 µM

Structure (SMILES): CC(C)(C)COC1OC(=O)C(Cl)=C1Nc1ccc(F)cc1 (configuration not stated)
- IC50 [3]: 26.7 µM
- IC50 [5]: 47.6 µM
- log(RatioIC50) [12]: 0.25

Structure (SMILES): O=C1OC(O)C(Cl)=C1Cl (configuration not stated) [MUCOCHLORIC ACID]
- Activity [1]: inactive
- Activity [2]: inactive
- IC50 [3]: 123 µM
- Activity [4]: inactive
- IC50 [5]: 45 µM
- Activity [6]: 58.7%
- IC50 [7]: 85.1 µM
- Activity [8]: 64.2%
- IC50 [9]: 39.4 µM
- Activity [10]: 8%
- IC50 [11]: 111 µM
- log(RatioIC50) [12]: -0.44
- Activity [13]: 29%
- IC50 [14]: 32.3 µM
- Activity [15]: 74%
- Activity [16]: 0.3%
- Activity [17]: inactive
- IC50 [18]: 8.3 µM
- IC50 [19]: 17.2 µM
- IC50 [20]: 10.8 µM
- Activity [21]: 33.3%
- IC50 [22]: 21.8 µM
- Activity [23]: inactive
- Activity [24]: inactive
- Activity [25]: 18.8%
- Activity [26]: inactive
- IC50 [27]: 130 µM
- Activity [28]: 98.6%
- Activity [29]: inactive
- Activity [30]: 6.9%
- IC50 [31]: 24.7 µM
- Activity [32]: 0.3%
- IC50 [33]: 58.5 µM
- Activity [34]: 7.2%
- Activity [35]: inactive
- Activity [36]: 0.8%

Structure (SMILES): CC(C)(C)COC1OC(=O)C(Cl)=C1Nc1ccccc1 (configuration not stated)
- IC50 [3]: 76.2 µM
- IC50 [5]: 76.2 µM
- log(RatioIC50) [12]: 0

Structure (SMILES): CCCCOC1OC(=O)C(Cl)=C1Nc1ccccc1 (configuration not stated)
- IC50 [3]: 175 µM
- IC50 [5]: 206 µM
- log(RatioIC50) [12]: 0.07

Structure (SMILES): CCOC1OC(=O)C(Cl)=C1Cl (configuration not stated)
- IC50 [3]: 6.3 µM
- IC50 [5]: 3.8 µM
- log(RatioIC50) [12]: 0.22
